Measurements published in ChEMBL document CHEMBL1201862, “PubChem BioAssay data set” (2004).
The source made the active and inactive calls.

Key:
ORF 73 = ORF 73 (Human herpesvirus 8, UniProt O40947); assay: KSHV LANA DNA-binding disruption – biochemical, fluorescence polarization, cherry-picked samples, dose response (AID 504725); set-up: species or system Human gammaherpesvirus 8;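 note: fluorescence polarization of a labeled DNA duplex reporting LANA DNA binding; potency is for inhibitors that block LANA binding to the DNA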
Cytochrome P450 2C19 = Cytochrome P450 2C19 (Homo sapiens, UniProt P33261); assay: qHTS Assay for Inhibitors and Substrates of Cytochrome P450 2C19. [Related pubchem assays: 410 ]; type: ADME; details: read-out: Potency
Cytochrome P450 3A4 = Cytochrome P450 3A4 (Homo sapiens, UniProt P08684); details: Potency;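 note: confirmatory qHTS run detecting inhibitors and substrates of CYP3A4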
Cytochrome P450 2C9 = Cytochrome P450 2C9 (Homo sapiens, UniProt P11712); details: Potency
[1] = general cell-killing toxicity readout – plate reader, dry powder samples, cytotoxicity control for PAX8 inhibitor project, dose response (AID 743021); type: functional, cell-based
[2] = molecular target: T1, DNA repair and recombination protein RAD54-like (Homo sapiens, UniProt Q92698); assay: RAD54 Holliday junction migration blockers – biochemical, fluorescence, cherry-picked samples, dose series, confirmation (AID 651657); type: functional
T1 sequence (Q92698 whole entry): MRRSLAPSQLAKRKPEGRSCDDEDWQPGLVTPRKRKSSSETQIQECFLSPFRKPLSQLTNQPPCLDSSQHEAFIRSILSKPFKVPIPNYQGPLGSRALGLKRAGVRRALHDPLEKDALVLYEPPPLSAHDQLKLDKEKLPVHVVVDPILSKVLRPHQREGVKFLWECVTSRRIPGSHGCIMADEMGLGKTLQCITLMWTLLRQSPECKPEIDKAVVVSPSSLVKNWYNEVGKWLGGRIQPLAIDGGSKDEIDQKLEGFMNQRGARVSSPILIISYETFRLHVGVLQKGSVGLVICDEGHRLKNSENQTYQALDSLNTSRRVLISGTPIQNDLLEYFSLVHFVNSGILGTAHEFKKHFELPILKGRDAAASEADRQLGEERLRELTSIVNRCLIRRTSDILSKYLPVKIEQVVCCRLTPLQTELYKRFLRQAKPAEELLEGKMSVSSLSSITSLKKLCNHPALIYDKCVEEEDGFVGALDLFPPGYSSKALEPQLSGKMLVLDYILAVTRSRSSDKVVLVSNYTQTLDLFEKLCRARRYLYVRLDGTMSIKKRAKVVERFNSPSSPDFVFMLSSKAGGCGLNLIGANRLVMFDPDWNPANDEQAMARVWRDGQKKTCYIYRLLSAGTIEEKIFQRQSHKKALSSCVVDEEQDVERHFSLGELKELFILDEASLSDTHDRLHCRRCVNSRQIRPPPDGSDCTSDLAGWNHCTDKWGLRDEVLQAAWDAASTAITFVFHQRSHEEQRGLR

Paired box protein Pax-8 = Paired box protein Pax-8 (Homo sapiens, UniProt Q06710); assay: PAX8 transcriptional activity inhibition in RMG-I – RMG-I cells, luciferase, cherry-pick, dose response (AID 687027); type: functional, cell-based;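 note: luciferase reporter driven by Pax8 target thyroperoxidase promoter measured by SteadyGlo luminescence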
[3] = molecular target: SWI/SNF-related matrix-associated actin-dependent regulator of chromatin subfamily A member 2 (Homo sapiens, UniProt P51531); assay: Luminescence-based cell-based high throughput dose response assay to identify activators of the function of SWI/SNF related, matrix associated, actin dependent regulator of chromatin, subfamily a, member 2 (SMARCA2, BRM).; type: functional
[4] = Counterscreen for activators of the function of SWI/SNF related, matrix associated, actin dependent regulator of chromatin, subfamily a, member 2 (SMARCA2, BRM): Luminescence-based cell-based high throughput dose response assay to identify non-selective compounds using the VP16 reporter assay.; type: functional
Beta Lactamase = Beta Lactamase (Pseudomonas aeruginosa, UniProt Q932Y6); assay: BLA reporter interference, concentration series – BLA reporter cells, FRET fluorescence, artefact control for TLR9-MyD88 binding inhibitor project, dose response (AID 588341); type: cell-based;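 note: cell based assay in CHO-K1 cells stably expressing beta-lactamase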
INS1 = assay: INS-1E survival protection against cytokine death – cell-based, luminescence, retest, dose response (AID 449756); type: functional; details: Rattus norvegicus;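 note: cell death triggered by IL-1 beta plus TNF-alpha plus IFN-gamma mixture; protective hits raise ATP signal compared with cytokine alone wells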
[5] = cytotoxicity toward MDA-MB-231 breast cancer cells – cell-based, CellTiter-Glo luminescence, cherry-pick, cytotoxicity control for RAD54 inhibitor project, dose response (AID 651692); type: functional
CHO = CHO cell viability loss, potency – luminescence, cytotoxicity control for TLR9-MyD88 binding inhibitor project, dose response (AID 588339); type: functional, cell-based, hamster; details: Cricetulus griseus;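 note: CHO cells stably coexpressing TLR9 and MyD88 fusions from primary screen; compound exposure lasted 48 hours before viability readout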
[6] = molecular target: Neurotensin receptor type 1 (Homo sapiens, UniProt P30989); type: functional;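 note: Image-based confirmatory dose-response assay measuring agonist activity at NTR1; NTR1-expressing U2OS osteosarcoma cells imaged for beta-arrestin GFP spot formation; agonist potency where compounds increase beta-arrestin recruitment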
[7] = molecular target: T2, Voltage-gated N-type calcium channel alpha-1B subunit/Amyloid beta A4 precursor protein-binding family A member 1 (Homo sapiens, UniProt Q00975+Q02410); type: protein assay
[8] = antiviral protection against BTV-induced cell death – arbovirus, BSR cells, confirmation (AID 1250); type: functional;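 note: protection from viral cytopathic effect measured as cell viability by ATP luminescence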
NS3 = NS3 (Hepatitis C virus, UniProt A3EZJ3); assay: PubChem AID 2173; set-up: species or system Hepacivirus hominis
[9] = molecular target: T2, Voltage-gated N-type calcium channel alpha-1B subunit/Amyloid beta A4 precursor protein-binding family A member 1; type: protein assay; remark: listed apart in the source
[10] = molecular target: Induced myeloid leukemia cell differentiation protein Mcl-1 (Homo sapiens, UniProt Q07820); type: functional
[11] = molecular target: Eukaryotic translation initiation factor 4E (Mus musculus, UniProt P63073); assay: blockers of eIF4G binding by eIF4E – biochemical, TR-FRET, dose response (AID 855); type: functional;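 note: potency for disrupting eIF4E binding to eIF4GI seen as loss of FRET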
HeLa = assay: viability loss in HeLa cells – cell-based, 24 h, cherry-picked samples, cytotoxicity control, dose response (AID 504726); type: functional; details: Homo sapiens
[12] = molecular target: Melanin-concentrating hormone receptor 1 (Homo sapiens, UniProt Q99705); assay: Fluorescence-based counterscreen for antagonists of the G-protein coupled receptor 7 (GPR7): cell-based high throughput dose response assay to identify antagonists of the melanin-concentrating hormone receptor 1 (MCHR1).; type: functional
[13] = A cytotoxicity screen of small molecule inhibitors of the PhoP region in Salmonella typhi identified in the primary screen. [Related pubchem assays: 1850, 1864, 1985 ]; type: functional
[14] = molecular target: DNA dC->dU-editing enzyme APOBEC-3G (Homo sapiens, UniProt Q9HC16); assay: Dose Response confirmation of small molecule APOBEC3G DNA Deaminase Inhibitors via a fluorescence-based single-stranded DNA deaminase assay. [Related pubchem assays (depositor defined):AID493012, AID493028]; type: functional
[15] = molecular target: DNA dC->dU-editing enzyme APOBEC-3A (Homo sapiens, UniProt P31941); assay: A3A deaminase inhibition for selectivity – biochemical, dose response (AID 504722); type: functional

Chain of Cytochrome P450 2C9 (P11712 whole entry): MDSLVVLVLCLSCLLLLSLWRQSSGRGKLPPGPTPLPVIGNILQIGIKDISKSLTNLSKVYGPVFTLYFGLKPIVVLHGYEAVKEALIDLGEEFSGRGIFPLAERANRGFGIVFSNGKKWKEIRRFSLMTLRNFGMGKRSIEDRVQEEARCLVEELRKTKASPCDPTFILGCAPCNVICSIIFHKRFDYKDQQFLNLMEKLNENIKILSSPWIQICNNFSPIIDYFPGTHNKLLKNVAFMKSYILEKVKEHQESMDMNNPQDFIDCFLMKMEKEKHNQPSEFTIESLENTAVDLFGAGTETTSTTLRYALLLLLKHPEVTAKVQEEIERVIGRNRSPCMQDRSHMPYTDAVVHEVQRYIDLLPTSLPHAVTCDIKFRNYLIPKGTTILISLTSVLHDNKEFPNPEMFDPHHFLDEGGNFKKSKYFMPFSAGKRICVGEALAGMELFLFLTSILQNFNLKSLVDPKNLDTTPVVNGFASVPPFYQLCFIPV
T2 sequence (Q00975 whole entry): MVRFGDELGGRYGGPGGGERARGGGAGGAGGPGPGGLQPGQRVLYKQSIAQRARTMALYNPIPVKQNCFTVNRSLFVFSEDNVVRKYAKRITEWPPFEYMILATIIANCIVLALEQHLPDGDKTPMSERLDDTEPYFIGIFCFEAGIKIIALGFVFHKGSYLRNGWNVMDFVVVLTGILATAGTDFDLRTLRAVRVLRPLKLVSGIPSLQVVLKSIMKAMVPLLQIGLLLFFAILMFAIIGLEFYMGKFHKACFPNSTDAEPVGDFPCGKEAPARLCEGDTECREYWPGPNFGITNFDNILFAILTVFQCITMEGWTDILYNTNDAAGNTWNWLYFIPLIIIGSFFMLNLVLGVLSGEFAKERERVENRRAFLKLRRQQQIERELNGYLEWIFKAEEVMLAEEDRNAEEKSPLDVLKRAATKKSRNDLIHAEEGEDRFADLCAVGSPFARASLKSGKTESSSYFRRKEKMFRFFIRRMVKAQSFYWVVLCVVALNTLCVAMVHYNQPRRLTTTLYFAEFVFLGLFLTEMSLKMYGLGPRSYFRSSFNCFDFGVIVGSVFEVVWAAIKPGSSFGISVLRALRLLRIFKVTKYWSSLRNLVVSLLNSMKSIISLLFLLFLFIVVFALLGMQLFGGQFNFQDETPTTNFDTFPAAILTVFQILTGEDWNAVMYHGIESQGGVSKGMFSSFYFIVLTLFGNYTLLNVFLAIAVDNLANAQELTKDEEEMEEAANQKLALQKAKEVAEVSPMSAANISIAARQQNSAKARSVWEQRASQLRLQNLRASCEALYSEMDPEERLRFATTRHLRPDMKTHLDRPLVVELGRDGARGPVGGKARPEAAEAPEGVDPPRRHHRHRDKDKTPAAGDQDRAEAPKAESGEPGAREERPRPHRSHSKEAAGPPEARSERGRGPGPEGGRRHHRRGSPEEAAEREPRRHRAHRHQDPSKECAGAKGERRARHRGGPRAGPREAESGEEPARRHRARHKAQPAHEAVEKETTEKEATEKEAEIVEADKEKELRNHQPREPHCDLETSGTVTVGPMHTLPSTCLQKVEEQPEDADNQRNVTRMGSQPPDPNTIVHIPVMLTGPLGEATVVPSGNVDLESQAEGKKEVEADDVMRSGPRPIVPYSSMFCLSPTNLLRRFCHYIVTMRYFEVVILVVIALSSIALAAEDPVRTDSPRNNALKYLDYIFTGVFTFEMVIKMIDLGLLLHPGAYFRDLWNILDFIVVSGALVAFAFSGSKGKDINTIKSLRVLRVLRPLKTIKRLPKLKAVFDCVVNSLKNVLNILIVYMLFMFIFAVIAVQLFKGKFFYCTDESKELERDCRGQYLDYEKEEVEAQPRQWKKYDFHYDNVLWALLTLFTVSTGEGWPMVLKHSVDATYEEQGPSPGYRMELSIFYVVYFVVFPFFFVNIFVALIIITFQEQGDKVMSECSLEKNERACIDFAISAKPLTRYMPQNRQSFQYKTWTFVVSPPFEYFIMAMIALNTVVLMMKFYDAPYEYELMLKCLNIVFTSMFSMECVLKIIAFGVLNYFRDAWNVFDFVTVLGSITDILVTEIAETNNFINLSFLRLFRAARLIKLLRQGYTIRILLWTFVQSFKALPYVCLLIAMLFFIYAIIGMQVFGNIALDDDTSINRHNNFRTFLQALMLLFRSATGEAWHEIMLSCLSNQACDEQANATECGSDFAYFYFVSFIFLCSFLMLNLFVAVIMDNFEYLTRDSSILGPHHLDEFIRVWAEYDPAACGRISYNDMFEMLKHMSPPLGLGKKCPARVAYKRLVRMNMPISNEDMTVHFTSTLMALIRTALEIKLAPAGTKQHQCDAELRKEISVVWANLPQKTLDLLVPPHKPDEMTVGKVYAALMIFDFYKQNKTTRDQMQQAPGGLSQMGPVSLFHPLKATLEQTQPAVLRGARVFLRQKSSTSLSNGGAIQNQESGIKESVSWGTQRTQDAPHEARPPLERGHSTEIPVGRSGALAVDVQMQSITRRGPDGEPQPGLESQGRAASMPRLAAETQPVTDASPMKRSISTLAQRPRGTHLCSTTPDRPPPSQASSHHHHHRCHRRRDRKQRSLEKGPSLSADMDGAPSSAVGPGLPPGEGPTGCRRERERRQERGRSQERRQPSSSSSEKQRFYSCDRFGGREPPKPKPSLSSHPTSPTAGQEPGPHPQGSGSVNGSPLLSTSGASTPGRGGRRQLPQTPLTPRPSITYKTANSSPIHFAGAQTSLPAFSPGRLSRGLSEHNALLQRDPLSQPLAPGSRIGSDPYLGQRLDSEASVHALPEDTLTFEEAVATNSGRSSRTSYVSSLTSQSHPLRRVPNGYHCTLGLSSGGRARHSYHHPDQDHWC
T2 sequence (Q02410 whole entry): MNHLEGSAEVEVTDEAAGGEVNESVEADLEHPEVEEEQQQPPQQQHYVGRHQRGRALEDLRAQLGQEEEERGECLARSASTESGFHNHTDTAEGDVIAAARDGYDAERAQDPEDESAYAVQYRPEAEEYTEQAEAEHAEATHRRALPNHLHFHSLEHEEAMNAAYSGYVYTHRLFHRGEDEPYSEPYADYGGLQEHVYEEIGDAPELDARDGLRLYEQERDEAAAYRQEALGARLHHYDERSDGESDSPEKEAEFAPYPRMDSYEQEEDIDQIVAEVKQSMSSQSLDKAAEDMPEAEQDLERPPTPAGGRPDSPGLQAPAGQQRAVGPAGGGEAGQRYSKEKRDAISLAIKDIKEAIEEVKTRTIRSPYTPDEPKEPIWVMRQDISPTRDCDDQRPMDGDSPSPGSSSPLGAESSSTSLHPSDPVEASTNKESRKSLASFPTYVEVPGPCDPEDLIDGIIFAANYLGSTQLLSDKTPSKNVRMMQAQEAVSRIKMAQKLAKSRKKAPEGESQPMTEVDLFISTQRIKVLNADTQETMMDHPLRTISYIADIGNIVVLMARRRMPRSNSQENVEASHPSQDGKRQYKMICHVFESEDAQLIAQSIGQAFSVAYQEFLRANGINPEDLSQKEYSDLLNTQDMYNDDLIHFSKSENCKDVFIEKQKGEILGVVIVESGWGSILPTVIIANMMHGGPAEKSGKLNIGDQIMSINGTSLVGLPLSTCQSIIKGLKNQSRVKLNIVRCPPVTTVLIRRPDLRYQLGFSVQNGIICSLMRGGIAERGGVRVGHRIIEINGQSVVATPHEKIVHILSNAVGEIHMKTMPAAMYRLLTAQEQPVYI
Chain of ORF 73 (O40947 whole entry): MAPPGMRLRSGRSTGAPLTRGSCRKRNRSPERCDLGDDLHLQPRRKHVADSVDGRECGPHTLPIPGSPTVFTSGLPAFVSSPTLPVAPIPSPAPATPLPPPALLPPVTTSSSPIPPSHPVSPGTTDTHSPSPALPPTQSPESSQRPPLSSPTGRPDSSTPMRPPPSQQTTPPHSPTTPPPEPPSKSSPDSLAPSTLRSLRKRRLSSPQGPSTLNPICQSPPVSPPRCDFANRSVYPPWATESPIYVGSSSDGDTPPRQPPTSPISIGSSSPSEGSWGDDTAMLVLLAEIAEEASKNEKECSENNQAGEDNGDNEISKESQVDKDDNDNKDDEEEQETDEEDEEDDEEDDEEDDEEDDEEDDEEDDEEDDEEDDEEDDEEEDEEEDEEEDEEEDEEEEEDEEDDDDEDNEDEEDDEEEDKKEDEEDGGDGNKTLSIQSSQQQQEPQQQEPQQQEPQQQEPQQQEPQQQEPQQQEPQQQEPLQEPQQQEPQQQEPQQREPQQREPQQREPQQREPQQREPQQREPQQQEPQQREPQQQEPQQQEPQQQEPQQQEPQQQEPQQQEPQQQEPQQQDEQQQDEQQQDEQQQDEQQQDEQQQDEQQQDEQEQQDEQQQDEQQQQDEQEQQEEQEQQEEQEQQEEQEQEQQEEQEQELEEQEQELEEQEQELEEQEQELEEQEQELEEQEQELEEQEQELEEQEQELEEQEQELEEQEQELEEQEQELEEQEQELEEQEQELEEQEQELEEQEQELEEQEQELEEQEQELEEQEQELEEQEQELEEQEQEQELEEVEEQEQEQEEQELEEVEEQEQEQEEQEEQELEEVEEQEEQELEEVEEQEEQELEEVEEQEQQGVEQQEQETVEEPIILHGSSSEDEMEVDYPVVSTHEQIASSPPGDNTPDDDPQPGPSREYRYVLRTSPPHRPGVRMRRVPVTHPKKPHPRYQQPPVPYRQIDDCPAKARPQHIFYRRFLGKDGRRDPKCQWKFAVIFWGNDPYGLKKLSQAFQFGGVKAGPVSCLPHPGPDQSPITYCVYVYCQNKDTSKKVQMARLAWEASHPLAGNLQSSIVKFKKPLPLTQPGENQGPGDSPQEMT
Chain of Induced myeloid leukemia cell differentiation protein Mcl-1 (Q07820 whole entry): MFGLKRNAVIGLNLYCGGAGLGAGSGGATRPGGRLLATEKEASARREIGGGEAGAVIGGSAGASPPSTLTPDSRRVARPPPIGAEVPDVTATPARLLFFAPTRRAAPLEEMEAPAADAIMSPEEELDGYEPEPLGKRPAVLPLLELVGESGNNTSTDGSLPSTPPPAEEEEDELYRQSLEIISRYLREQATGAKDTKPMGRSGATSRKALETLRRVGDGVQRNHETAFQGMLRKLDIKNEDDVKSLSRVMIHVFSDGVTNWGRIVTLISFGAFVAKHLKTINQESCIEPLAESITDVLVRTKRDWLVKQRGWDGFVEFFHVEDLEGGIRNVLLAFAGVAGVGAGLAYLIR

O=c1ccc2cc3c4c(c2o1)CCCN4CCC3
AC50 (ORF 73): 12.6 µM (active)

COc1ccc(OC2C=CC(C#Cc3ccc(C(C)(C)C)cc3)OC2CO)cc1 (configuration not stated)
AC50 (Cytochrome P450 2C19): 2.51 µM (inconclusive)
AC50 (Cytochrome P450 3A4): 3.98 µM (inconclusive)
AC50 (Cytochrome P450 2C9): 0.398 µM (inconclusive)

CC(=O)c1ccc(OCc2ccccc2)c(C)c1O
AC50 (Cytochrome P450 2C9): 2 µM (inconclusive)

COc1ccc(Cn2cc3c(-c4ccc(F)cc4)nnc-3c3cc(OC)c(OC)cc32)cc1
AC50 [1]: 29.5 µM (active)
AC50 [2]: 7.21 µM (active)
AC50 (Paired box protein Pax-8): 12.9 µM (active)
EC50 [3]: > 91.2 µM (inactive)
EC50 [4]: > 91.2 µM (inactive)
IC50 (Beta Lactamase): 5.58 µM (active)
AC50 (INS1): 6.94 µM (active)
AC50 [5]: 15.3 µM (active)
IC50 (CHO): 11.9 µM (inactive)
EC50 [6]: 5.72 µM (active)

Cc1ccc(-n2cccc2/C=C2\C(=N)N3N=C(c4ccco4)SC3=NC2=O)cc1
IC50 [7]: > 50 µM (inactive)
IC50 [8]: 26 µM (active)
IC50 (NS3): 5.31 µM (active)
IC50 [9]: 8.99 µM (active)
IC50 [10]: 1.7 µM (active)
IC50 [11]: 50 µM (inactive)

CC(Sc1ncccn1)C(=O)NNC(=O)c1cccc(Cl)c1 (configuration not stated)
AC50 (HeLa): 46.6 µM (active)

COc1cccc(CC2(CO)CCCN(Cc3c(C)cc(C)cc3-n3cccn3)C2)c1 (configuration not stated)
IC50 [12]: 12.6 µM (not active)

NC1=NC2(CCCCC2)n2c(nc3ccccc32)N1
EC50 [13]: > 50 µM (active)

Sc1nnc(-c2cccnc2)n1/N=C/C=C/c1ccccc1
IC50 [14]: 2.33 µM (active)
IC50 [15]: > 100 µM (inactive)

O=S(=O)(Nc1ncccn1)c1ccc(NC(=S)Nc2cccc(Cl)c2)cc1
EC50 [13]: > 50 µM (active)
